# Results taken from patent US7795290B2 (Genentech, Inc., priority 2004, dated 2010).
# Target: T1, AKT1 (Homo sapiens, UniProt P31749)
# T1 construct: purchased Upstate 14-276
# Assay: HTS ATP-utilizing enzyme assay, off-chip mobility-shift (Caliper HTS 250)
# Type: biochemical
# Settings: kinase named = inhibitory activity/selectivity; test compound 10 μM; active = greater than three-sigma from mean
# In short: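 AKT1 activity was measured by off-chip mobility shift (Caliper HTS 250) as the ratio of peptide substrate to phosphorylated product. Test compound was at 10 μM, with 2.5 h incubation at 20–22° C. EDTA wells served as 100% control and DMSO wells as 0%. Hits were called at three-sigma limits.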
# T1 sequence (P31749 whole entry): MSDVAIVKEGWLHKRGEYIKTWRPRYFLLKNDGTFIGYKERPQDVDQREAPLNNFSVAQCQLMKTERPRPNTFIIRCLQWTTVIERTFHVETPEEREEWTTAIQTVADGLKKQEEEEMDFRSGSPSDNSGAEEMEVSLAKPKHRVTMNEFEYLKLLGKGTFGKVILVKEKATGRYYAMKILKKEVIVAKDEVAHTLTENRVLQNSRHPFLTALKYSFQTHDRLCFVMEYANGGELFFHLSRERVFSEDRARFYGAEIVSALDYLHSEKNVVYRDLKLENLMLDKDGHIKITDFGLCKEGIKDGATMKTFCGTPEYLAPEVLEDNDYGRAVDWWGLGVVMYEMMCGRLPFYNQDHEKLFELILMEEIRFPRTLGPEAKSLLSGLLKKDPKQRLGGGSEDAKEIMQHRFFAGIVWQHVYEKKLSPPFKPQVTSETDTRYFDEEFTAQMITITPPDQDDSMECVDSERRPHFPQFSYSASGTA
row,Activity,SMILES
1,AKT1,N#Cc1ccc(-c2csc(N(CCCN3CCOCC3)C(=O)c3cccs3)n2)cc1 [N-(4-(4-cyanophenyl)thiazol-2-yl)-N-(3-morpholinopropyl)thiophene-2-carboxamide]
2,AKT1,O=C(c1cccs1)N(CCCN1CCOCC1)c1nc(-c2ccc(F)cc2)cs1 [N-(4-(4-fluorophenyl)thiazol-2-yl)-N-(3-morpholinopropyl)thiophene-2-carboxamide]
3,AKT1,COc1ccc(-c2csc(N(CCCN3CCOCC3)C(=O)c3nccn3C)n2)cc1 [N-(4-(4-methoxyphenyl)thiazol-2-yl)-1-methyl-N-(3-morpholinopropyl)-1H-imidazole-2-carboxamide]
4,AKT1,COc1ccc(-c2csc(N(CCCN3CCOCC3)C(=O)c3cccn3C)n2)cc1 [N-(4-(4-methoxyphenyl)thiazol-2-yl)-1-methyl-N-(3-morpholinopropyl)-1H-pyrrole-2-carboxamide]
5,AKT1,COc1ccc(-c2csc(N(CCCN3CCOCC3)C(=O)c3cccc(C)c3)n2)cc1 [N-(4-(4-methoxyphenyl)thiazol-2-yl)-3-methyl-N-(3-morpholinopropyl)benzamide]
6,AKT1,COc1ccc(-c2csc(N(CCCN3CCOCC3)C(=O)c3occc3C)n2)cc1 [N-(4-(4-methoxyphenyl)thiazol-2-yl)-3-methyl-N-(3-morpholinopropyl)furan-2-carboxamide]
7,AKT1,COc1ccc(-c2csc(N(CCCN3CCOCC3)C(=O)c3sccc3C)n2)cc1 [N-(4-(4-methoxyphenyl)thiazol-2-yl)-3-methyl-N-(3-morpholinopropyl)thiophene-2-carboxamide]
8,AKT1,COc1ccc(-c2csc(N(CCCN3CCCCC3)C(=O)c3cccs3)n2)cc1 [N-(4-(4-methoxyphenyl)thiazol-2-yl)-N-(3-(piperidin-1-yl)propyl)thiophene-2-carboxamide]
9,AKT1,COc1ccc(-c2csc(N(CCCN3CCCC3)C(=O)c3ccccc3)n2)cc1 [N-(4-(4-methoxyphenyl)thiazol-2-yl)-N-(3-(pyrrolidin-1-yl)propyl)benzamide]
10,AKT1,COc1ccc(-c2csc(N(CCCN3CCCC3)C(=O)c3ccco3)n2)cc1 [N-(4-(4-methoxyphenyl)thiazol-2-yl)-N-(3-(pyrrolidin-1-yl)propyl)furan-2-carboxamide]
11,AKT1,COc1ccc(-c2csc(N(CCCN3CCCC3)C(=O)c3cccs3)n2)cc1 [N-(4-(4-methoxyphenyl)thiazol-2-yl)-N-(3-(pyrrolidin-1-yl)propyl)thiophene-2-carboxamide]
12,AKT1,COc1ccc(-c2csc(N(CCCN3CCOCC3)C(=O)c3ccccc3)n2)cc1 [N-(4-(4-methoxyphenyl)thiazol-2-yl)-N-(3-morpholinopropyl)benzamide]
13,AKT1,COc1ccc(-c2csc(N(CCCN3CCOCC3)C(=O)C3CCCCC3)n2)cc1 [N-(4-(4-methoxyphenyl)thiazol-2-yl)-N-(3-morpholinopropyl)cyclohexanecarboxamide]
14,AKT1,COc1ccc(-c2csc(N(CCCN3CCOCC3)C(=O)C3=CCCC3)n2)cc1 [N-(4-(4-methoxyphenyl)thiazol-2-yl)-N-(3-morpholinopropyl)cyclopent-1-enecarboxamide]
15,AKT1,COc1ccc(-c2csc(N(CCCN3CCOCC3)C(=O)c3cccs3)n2)cc1 [N-(4-(4-methoxyphenyl)thiazol-2-yl)-N-(3-morpholinopropyl)thiophene-2-carboxamide]
16,AKT1,O=C(c1cccs1)N(CCCN1CCOCC1)c1nc(-c2ccc(N3CCOCC3)cc2)cs1 [N-(4-(4-morpholinophenyl)thiazol-2-yl)-N-(3-morpholinopropyl)thiophene-2-carboxamide]
17,AKT1,O=C(c1cccs1)N(CCCN1CCOCC1)c1nc(-c2ccc(Cl)s2)cs1 [N-(4-(5-chlorothiophen-2-yl)thiazol-2-yl)-N-(3-morpholinopropyl)thiophene-2-carboxamide]
